Data published in ChEMBL document CHEMBL1201862, “PubChem BioAssay data set” (2004).
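All cell lines were grown in 96-well plates and treated with compound for 48 hours. GI50 = concentration required for 50% inhibition of growth.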 Activity calls are given as the source filed them. Cut-off read from the data, not from the text of the source: active = GI50 up to about 1.1 µM and inactive = higher.

Legend:
Assay in all cases: DTP human tumour cell line panel, 48 h
A549 = tested on: A549
CAKI-1 = tested on: CAKI-1
CCRF-CEM = tested on: CCRF-CEM
EKVX = tested on: EKVX
HCT-116 = tested on: HCT-116
HCT-15 = tested on: HCT-15
HOP-92 = tested on: HOP-92
HT-29 = tested on: HT-29
IGROV-1 = tested on: IGROV-1
K562 = tested on: K562
M14 = tested on: M14
MOLT-4 = tested on: MOLT-4
OVCAR-3 = tested on: OVCAR-3
OVCAR-5 = tested on: OVCAR-5
SF-295 = tested on: SF-295
SK-MEL-28 = tested on: SK-MEL-28
UACC-62 = tested on: UACC-62
UO-31 = tested on: UO-31
NCI-H226 = tested on: NCI-H226
OVCAR-4 = tested on: OVCAR-4

Row | SMILES | GI50 (A549) | GI50 (CAKI-1) | GI50 (CCRF-CEM) | GI50 (EKVX) | GI50 (HCT-116) | GI50 (HCT-15) | GI50 (HOP-92) | GI50 (HT-29) | GI50 (IGROV-1) | GI50 (K562) | GI50 (M14) | GI50 (MOLT-4) | GI50 (OVCAR-3) | GI50 (OVCAR-5) | GI50 (SF-295) | GI50 (SK-MEL-28) | GI50 (UACC-62) | GI50 (UO-31) | GI50 (NCI-H226) | GI50 (OVCAR-4)
1 | N#CC1=C(N)C(C#N)(C#N)C(c2ccc(F)cc2)C=C1C1CC1 (stereo unspecified) | 13.8 µM (inactive) | 15 µM (inactive) | 4.71 µM (inactive) | 17.6 µM (inactive) | 4.01 µM (inactive) | 9.77 µM | 11.9 µM (inactive) | 6.12 µM (inactive) | 12.9 µM (inactive) | 6.03 µM (inactive) | 4.21 µM (inactive) | 4.81 µM (inactive) | 5.27 µM (inactive) | 12.6 µM (inactive) | 11.2 µM (inactive) | 12.4 µM (inactive) | 8.24 µM (inactive) | 14 µM (inactive) |  | 
2 | Nc1nc(=O)n(CC(O)CO)s1 (stereo unspecified) | > 100 µM (inactive) |  | > 100 µM (inactive) | > 100 µM (inactive) | > 100 µM (inactive) | > 100 µM |  | > 100 µM (inactive) | > 100 µM (inactive) | > 100 µM (inactive) | > 100 µM (inactive) | > 100 µM (inactive) | > 100 µM (inactive) | > 100 µM (inactive) | > 100 µM (inactive) | < 0.01 µM (active) | > 100 µM (inactive) | > 100 µM (inactive) | > 100 µM (inactive) | > 100 µM (inactive)
3 | CCC(C)C1=C(O)[N+]2([O-])Oc3ccc(-c4c(O)c(O)c(-c5ccc(O)cc5)c(OC(C)=O)c4OC(C)=O)cc3OC2(C(C)CC)C(=O)N1O (stereo unspecified) | > 50 µM (inactive) | > 50 µM (inactive) | 1.88 µM (inactive) | 39.5 µM (inactive) | 18.2 µM (inactive) | > 50 µM |  | > 50 µM (inactive) | > 50 µM (inactive) | 35.4 µM (inactive) | > 50 µM (inactive) | 43.8 µM (inactive) | > 50 µM (inactive) | > 50 µM (inactive) | > 50 µM (inactive) | > 50 µM (inactive) | > 50 µM (inactive) | > 50 µM (inactive) | > 50 µM (inactive) | > 50 µM (inactive)
4 | CC(C)(C)[Si](C)(C)OCCOCn1cc(F)c(=O)[nH]c1=O | > 100 µM (inactive) | > 100 µM (inactive) | > 100 µM (inactive) | > 100 µM (inactive) | > 100 µM (inactive) | > 100 µM |  | > 100 µM (inactive) | > 100 µM (inactive) | > 100 µM (inactive) | > 100 µM (inactive) | > 100 µM (inactive) | > 100 µM (inactive) | > 100 µM (inactive) | > 100 µM (inactive) |  | > 100 µM (inactive) | > 100 µM (inactive) | > 100 µM (inactive) | > 100 µM (inactive)
5 | O=c1cc(-c2ccccc2)[nH]c2c(Cl)cccc12 | 7.98 µM (inactive) |  | 16.1 µM (inactive) | 49.5 µM (inactive) | 7.24 µM (inactive) | 5.09 µM |  | 20.8 µM (inactive) | 4.86 µM (inactive) | 2.77 µM (inactive) | 9.31 µM (inactive) | 8.34 µM (inactive) | 24.5 µM (inactive) |  | 20.1 µM (inactive) | > 100 µM (inactive) | 4.55 µM (inactive) | 34.2 µM (inactive) | 9.55 µM (inactive) | 18.9 µM (inactive)
6 | N#Cc1nc(Cc2cccs2)oc1N | > 100 µM (inactive) | > 100 µM (inactive) | 47.5 µM (inactive) | > 100 µM (inactive) | > 100 µM (inactive) | > 100 µM | > 100 µM (inactive) | > 100 µM (inactive) | > 100 µM (inactive) | > 100 µM (inactive) | > 100 µM (inactive) | > 100 µM (inactive) |  | > 100 µM (inactive) |  | > 100 µM (inactive) | > 100 µM (inactive) | 27.5 µM (inactive) |  | 
7 | COc1ccc(OC)c2c(C(=O)O)c(Cc3ccccc3)ccc12 | > 100 µM (inactive) | > 100 µM (inactive) | > 10 µM (inactive) | > 100 µM (inactive) | > 100 µM (inactive) | > 100 µM |  | > 100 µM (inactive) | > 100 µM (inactive) | > 100 µM (inactive) | > 100 µM (inactive) | > 100 µM (inactive) | > 100 µM (inactive) | > 100 µM (inactive) | > 100 µM (inactive) | > 100 µM (inactive) | > 100 µM (inactive) | > 100 µM (inactive) | > 100 µM (inactive) | > 100 µM (inactive)
8 | COc1ccc(-c2cc(-c3ccccc3)c(C#N)c(=O)n2C2OC(CO)C(O)C(O)C2O)cc1 (stereo unspecified) | > 100 µM (inactive) |  | > 100 µM (inactive) | > 100 µM (inactive) | > 100 µM (inactive) | > 100 µM |  | > 100 µM (inactive) | > 100 µM (inactive) | > 100 µM (inactive) | > 100 µM (inactive) | > 100 µM (inactive) | > 100 µM (inactive) | > 100 µM (inactive) | > 100 µM (inactive) | > 100 µM (inactive) | > 100 µM (inactive) | > 100 µM (inactive) | > 100 µM (inactive) | > 100 µM (inactive)
9 | CCOC(=O)CNC(=O)c1nc[nH]c1/N=N/N(C)C | > 100 µM (inactive) | > 100 µM (inactive) | > 100 µM (inactive) | > 100 µM (inactive) | > 100 µM (inactive) | > 100 µM |  | > 100 µM (inactive) | > 100 µM (inactive) | > 100 µM (inactive) | > 100 µM (inactive) | > 100 µM (inactive) | > 100 µM (inactive) | > 100 µM (inactive) | > 100 µM (inactive) | > 100 µM (inactive) | > 100 µM (inactive) | > 100 µM (inactive) | > 100 µM (inactive) | > 100 µM (inactive)
10 | CCN(CC)c1ccc2cc(C(=O)Nc3ccc4[nH]c(C(=O)N5C[C@@H](CCl)c6c5cc(OC(=O)Nc5ccccc5)c5[nH]cc(C)c65)cc4c3)oc2c1 [CARZELESIN] | 0.000162 µM (active) | 5.28e-05 µM (active) | 0.000168 µM (active) | 0.000266 µM (active) | 152 µM (inactive) | 0.000676 µM | > 1000 µM (inactive) | > 1000 µM (inactive) | 0.000506 µM (active) | 0.000556 µM (active) |  | 0.000343 µM (active) | 245 µM (inactive) | 0.000601 µM (active) |  | 0.000479 µM (active) | 4.61e-05 µM (active) | 668 µM (inactive) |  | 0.000426 µM (active)
11 | N/N=C1/C2CN3CCN(C2)CC1(c1ccc([N+](=O)[O-])cc1)C3 |  | > 100 µM (inactive) |  | > 100 µM (inactive) | > 100 µM (inactive) |  |  | > 100 µM (inactive) | > 100 µM (inactive) | > 100 µM (inactive) |  | > 100 µM (inactive) | > 100 µM (inactive) | > 100 µM (inactive) | > 100 µM (inactive) | > 100 µM (inactive) | > 100 µM (inactive) | > 100 µM (inactive) | > 100 µM (inactive) | > 100 µM (inactive)
12 | [O-][S+]1c2ccccc2NC(c2ccc3ccccc3c2)CC1c1ccccc1 (stereo unspecified) | 30.1 µM (inactive) | 26.8 µM (inactive) | 17 µM (inactive) | 26.6 µM (inactive) |  | 22.3 µM |  | 22.3 µM (inactive) | 19.3 µM (inactive) | 16 µM (inactive) | 40.5 µM (inactive) | 24 µM (inactive) | 15.6 µM (inactive) | 42 µM (inactive) | 19.1 µM (inactive) | 35.2 µM (inactive) | 37.1 µM (inactive) | 18 µM (inactive) | 20.6 µM (inactive) | 23.9 µM (inactive)
13 | CC1CC2(S(=O)(=O)c3ccccc3)ON1CC2S(=O)(=O)c1ccccc1 (stereo unspecified) | > 100 µM (inactive) | > 100 µM (inactive) | > 100 µM (inactive) | > 100 µM (inactive) | > 100 µM (inactive) | > 100 µM |  | > 100 µM (inactive) | > 100 µM (inactive) | > 100 µM (inactive) | > 100 µM (inactive) | > 100 µM (inactive) | > 100 µM (inactive) | > 100 µM (inactive) | > 100 µM (inactive) | > 100 µM (inactive) | > 100 µM (inactive) | > 100 µM (inactive) | > 100 µM (inactive) | > 100 µM (inactive)
14 | CC1CN=C(Nc2cccc(C(F)(F)F)c2)S1 (stereo unspecified) |  |  | 31.9 µM (inactive) | 34.1 µM (inactive) | 41.7 µM (inactive) | 36.1 µM |  | 78.7 µM (inactive) |  | 30.4 µM (inactive) | > 100 µM (inactive) | 25.4 µM (inactive) | 51.5 µM (inactive) | > 100 µM (inactive) |  | > 100 µM (inactive) | 97.3 µM (inactive) | 27.5 µM (inactive) | 79.3 µM (inactive) | 
15 | Nc1n2nc(-c3ccccc3)sc2n[n+]1CC(=O)c1ccccc1 | 21.2 µM (inactive) | 12.3 µM (inactive) | 3.07 µM (inactive) | 31.6 µM (inactive) |  | 12.9 µM |  | 9.53 µM (inactive) | 12.6 µM (inactive) | 3.09 µM (inactive) | 10.1 µM (inactive) | 3.66 µM (inactive) | 14.7 µM (inactive) | 34.8 µM (inactive) | 14 µM (inactive) | 25.4 µM (inactive) | 7.06 µM (inactive) | 16.6 µM (inactive) | 16.7 µM (inactive) | 47.2 µM (inactive)
16 | O=C(/C=C/c1ccc(O)c(O)c1)O[C@H]1CCCC[C@@H]1OC(=O)/C=C/c1ccc(O)c(O)c1 | 11.7 µM (inactive) | 7.48 µM (inactive) | 4.8 µM (inactive) | 20.6 µM (inactive) | 3.72 µM (inactive) | 6.73 µM | 8.93 µM (inactive) |  | 4.9 µM (inactive) | 7.57 µM (inactive) | 15.9 µM (inactive) | 3.85 µM (inactive) | 5.51 µM (inactive) | 15.6 µM (inactive) | 12.9 µM (inactive) | 15.8 µM (inactive) | 8.09 µM (inactive) | 7.03 µM (inactive) |  | 17.9 µM (inactive)
